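Five compound concentrations were applied to cells in 96-well plates for 48 hours; endpoints were derived by simple linear interpolation of the resulting dose-response curve. Here, GI50 denotes the concentration required for 50% inhibition of growth. The concentration for full growth arrest is given as TGI.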
What was measured:
Assay in all cases: NCI anticancer screen, dose series, 48 h
UO-31 renal = system: UO-31 renal
DU-145 prostate = system: DU-145 prostate
NCI-H23 lung = system: NCI-H23 lung
NCI-H522 lung = system: NCI-H522 lung
BT-549 breast = system: BT-549 breast
HOP-62 NSCLC = system: HOP-62 NSCLC
OVCAR-3 ovarian = system: OVCAR-3 ovarian
HCT-15 colon = system: HCT-15 colon
HCC-2998 colon = system: HCC-2998 colon
SK-MEL-5 melanoma = system: SK-MEL-5 melanoma

| Structure (SMILES) | GI50 (UO-31 renal) [nM] | TGI (UO-31 renal) [µM] | GI50 (DU-145 prostate) [µM] | TGI (DU-145 prostate) [µM] | GI50 (NCI-H23 lung) [µM] | TGI (NCI-H23 lung) [µM] | GI50 (NCI-H522 lung) [nM] | TGI (NCI-H522 lung) [µM] | GI50 (BT-549 breast) [µM] | TGI (BT-549 breast) [µM] | GI50 (HOP-62 NSCLC) [µM] | TGI (HOP-62 NSCLC) [µM] | GI50 (OVCAR-3 ovarian) [nM] | TGI (OVCAR-3 ovarian) [µM] | GI50 (HCT-15 colon) [µM] | TGI (HCT-15 colon) [µM] | GI50 (HCC-2998 colon) [µM] | TGI (HCC-2998 colon) [µM] | GI50 (SK-MEL-5 melanoma) [µM] | TGI (SK-MEL-5 melanoma) [µM] |
| --- | --- | --- | --- | --- | --- | --- | --- | --- | --- | --- | --- | --- | --- | --- | --- | --- | --- | --- | --- | --- |
| O=C(c1cc(-c2cc3c(cc2C(=O)N2Cc4ccccc4C[C@H]2CN2CCOCC2)OCO3)n2c1CCCC2)N(c1ccccc1)c1ccc(O)cc1 | 4280 | > 100 | 18 | > 100 | 34.8 | > 100 | 22900 | > 100 | 36.4 | > 100 | 64.4 | > 100 | 5550 | > 100 | 3.54 | > 100 | 4.93 | 61.3 | 3.78 | 18.6 |
| CNC1NC(=O)c2ccccc2N1Cc1ccc(F)cc1 (stereo not given) |  | 26 |  | > 100 |  | > 100 |  | > 100 |  | > 100 |  | > 100 |  | > 100 |  | > 100 |  | > 100 |  | > 100 |
| CCC(C)/C=C(C)/C=C/C(=O)c1c(O)c(-c2ccc(O)cc2)c[nH]c1=O (stereo not given) | 2160 | 14.3 | 2.87 | 11.1 | 3.62 | 17.6 | 3300 | 10.8 | 4.42 | 15.3 | 4.2 | 16.3 | 2790 | 9.33 | 2.4 | 12.6 | 3.75 | 14.8 | 4.29 | 16.7 |
| CN1CCN(Cc2ccc(NC(=O)c3[nH]ncc3Nc3ncnc4c3CCC4)cc2)CC1 | 1500 | 7.61 | 1.64 | 10.7 | 1.8 | 6.79 | 1540 | 8.79 | 2.14 | 6.97 | 2.69 | 11.5 | 1090 | 4.6 | 1.67 | 12.6 | 3.02 | 11.6 | 0.874 | 13.3 |
| Cn1c2ccccc2c2nnc(N/N=C/c3ccccn3)nc21 | 361 | 5.3 | 0.377 | > 27.3 | 0.382 | > 22.6 | 574 | 33 | 0.452 | > 38.9 | 0.337 | 6.02 | 489 | > 33 | 0.374 | > 100 | 0.529 | > 63.8 | 0.24 | 0.806 |
| O=c1[nH]nc2c3c(cccc13)NC(CN1Cc3ccccc3C1)=N2 | 4790 | > 100 | 5 | > 100 | 4.41 | > 100 | 2770 | > 100 | 34.7 | > 100 | 3.2 | > 100 | 5640 | > 100 | 6.13 | > 100 | 4.35 | > 100 | 8.42 | > 100 |
| O=C1C(Cl)=C(N2CCOCC2)C(=O)c2ccccc21 | 1640 | 3.28 | 17.7 | 31.9 | 3.32 | 20.9 | 1670 | 3.23 | 10.8 | 23.2 | 17.4 | 31.3 | 2040 | 3.58 | 2.11 | 4.33 | 12 | 25.6 | 6.82 | 19.4 |
| O=[N+]([O-])c1cc(Br)cc2c1[nH]c1ccc(Br)cc12 | 2080 | 10.4 | 6.17 | 76.6 | 8.56 | > 100 | 3090 | 40.3 | 18.7 | 58 | 2.11 | 5 | 2560 | 7.42 | 28 | > 100 | 9.86 | > 100 | 8.03 | > 100 |
| CCOC(=O)[C@@H](C)C[C@H](Cc1ccccc1)NC(=O)c1csc([C@@H](C[C@H](C(C)C)N(C)C(=O)[C@H](CCC(C)C)NC(=O)[C@H]2CCCCN2C)OC(C)=O)n1 | 22.7 | 5.14 | 0.00892 | 26.2 | 0.0129 | > 33.3 | < 3.33 | 0.00708 | 0.0119 | 0.195 | 0.00932 | 5.68 | < 3.33 | 0.0335 | 0.0138 | 4.19 | < 0.00333 | 4.28 | < 0.00333 | 0.0927 |
| Cc1c(Cl)cccc1NC(=O)c1sc2nc3c(cc2c1N)CCCCCC3 | 1510 | > 50 | 0.258 | > 50 | 0.273 | > 50 | 116 | 1.07 | 0.439 | 23.4 | 0.326 | 19.8 | 174 | 1.21 | 0.156 | > 50 | 1.39 | > 50 | 0.177 | 10.5 |
| CN(C)CCNC(=O)c1cc([N+](=O)[O-])ccn1 |  | > 100 |  | > 100 |  | 47.1 |  | 37.2 |  | > 100 |  | > 100 |  | 56.2 |  | 41 |  | > 100 |  | 41.5 |
| N#CSCC1CC(O)(c2ccccc2)C(c2ccccc2)C(c2ccc(F)cc2)O1 (stereo not given) | 2620 | 11.9 | 2.16 | 5 | 3.21 | 11.1 | 2400 | 7.24 | 2.32 | 5.39 | 8.81 | 24.3 | 1520 | 2.99 | 3.05 | 10.2 | 10.7 | 23 | 4.84 | 17.2 |
| Fc1ccc(-c2nnc3sc(-c4cccc(Cl)c4)nn23)cc1Cl | > 100000 | > 100 | > 100 | > 100 | > 100 | > 100 | > 100000 | > 100 | > 100 | > 100 | > 100 | > 100 | > 100000 | > 100 | > 100 | > 100 | > 100 | > 100 | > 100 | > 100 |
| CC(=O)Oc1cccc2c1C(=O)C(Br)(Br)CCC2 |  | 23.2 |  | 26.6 |  | 18.7 |  | 4.55 |  | 4.19 |  | 22 |  | 13.3 |  | 29.4 |  | 31.1 |  | 14.4 |
| C=C(CN1CCN(c2ccccc2F)CC1)c1ccc(C(=O)Nc2ccccc2N)cc1 | 1320 | 17.3 | 1.6 | 6.06 | 1.87 | 8.88 | 1480 | 4.41 | 1.46 | 8.82 | 1.15 | 9.45 | 2140 | 7.82 | 0.737 | > 100 | 3.2 | 17.7 | 1.51 | 16.8 |
| Cc1cc(-c2nc3ccc(O)cc3s2)ccc1N | 21600 | > 100 | 34.1 | > 100 | 12.5 | 43.7 | 30000 | > 100 | 14.2 | 33.9 | 31.1 | > 100 | 39300 | > 100 | > 100 | > 100 | > 100 | > 100 | 52.1 | > 100 |
| C#CC[C@H](c1nc2cc(Cl)ccc2c(=O)n1Nc1ccccc1)N(CCCN)C(=O)c1cccc(Cl)c1F | 2940 | 8.07 | 0.215 | 0.75 | 0.624 | 11.2 | 89.8 | 0.935 | 0.798 | 3.33 | 0.842 | 2.23 | 242 | 1.19 | 2.15 | 5.68 | 0.178 | 1.39 | 0.727 | 2.14 |
| CO/N=C1/NC(=O)/C(=C/c2ccc3ncccc3c2)S1 | 4990 | > 22.7 | 12.3 | > 25 | 12.2 | > 25 | 12300 | > 25 | 9.1 | > 25 | > 22.6 | > 25 | 11100 | > 25 | 9.13 | > 25 | > 25 | > 25 | > 14.1 | > 25 |
| COc1cccc(/C=C/C(=O)c2cc3c(N)c(C(=O)Nc4cccc(Cl)c4C)sc3nc2C)c1 | 809 | 1.97 | 1.33 | 3.98 | 1.34 | 5.4 | 424 | 2.86 | 1 | 2.8 | 1.1 | 4.64 | 854 | 2 | 0.51 | 1.46 | 0.971 | 1.83 | 1 | 2.34 |
| CN(/N=N/c1nc(OCc2ccccc2)c2[nH]cnc2n1)C(=O)N(C)/N=N/c1nc(OCc2ccccc2)c2[nH]cnc2n1 | 36100 | > 100 | 38.9 | > 100 | 34.7 | > 100 | 39400 | > 100 | 36.6 | > 100 | 96.1 | > 100 | 34800 | > 100 | 35.4 | > 100 | 19.3 | 81.6 | 20.9 | 61.5 |
| NC(=NC1CCCCCC1)c1ccc(N2CCN(c3ccc(C(N)=NC4CCCCCC4)cc3)CC2)cc1 | 33700 | > 50 | 7.59 | > 50 | 4.77 | 18.5 | 5420 | 23.9 | 2.1 | 5.48 | 8.48 | 22.6 | 4280 | 28.8 | 24.3 | > 50 | 8.9 | > 50 | 1.33 | 6.76 |
| COc1ccc(C2=C(c3cn(C)c4ccccc34)C(=O)NC2=O)cc1OC | 4830 | > 25 | > 19.4 | > 25 | 10.3 | > 25 | 7650 | > 21.9 | 8.02 | > 25 | 11.8 | > 25 | 7570 | > 25 | 6.4 | > 25 | > 22.3 | > 25 | 6.11 | > 22.3 |
| COc1cc(-c2cn(-c3ccc(Cl)cc3)c(=O)[nH]2)cc(OC)c1OC | > 100000 | > 100 | > 100 | > 100 | > 100 | > 100 | > 100000 | > 100 | > 100 | > 100 | > 100 | > 100 | > 100000 | > 100 | > 100 | > 100 | > 100 | > 100 | > 100 | > 100 |
| COC[C@H]1OC(=O)c2coc3c2[C@@]1(C)C1=C(C3=O)[C@@H]2CCC(=O)[C@@]2(C)C[C@H]1OC(C)=O |  | > 72.8 |  | > 100 |  | > 100 |  | > 71.9 | 0.485 | 12.7 |  | > 100 |  | > 78.1 |  | > 100 |  | 20 |  | 61 |
| Cc1ccc(C(=O)N/N=C/c2cccc(Oc3ccccc3)c2)cn1 | 19600 | > 100 | 18.7 | > 100 | 26.6 | > 100 | 7380 | > 69.8 | 5.37 | > 55.6 | 60.2 | > 100 | 5960 | > 100 | 3.89 | > 100 | 16.1 | > 100 | 5.21 | > 100 |
| COc1ccc(/C=C(\C#N)c2cc(OC)c3c(c2)OCO3)cc1 | 251 | > 55.8 | 0.0256 | 0.186 | < 0.0143 | 24.3 | < 10 |  | 0.0657 | 83.2 | < 0.0125 | 24.1 | < 10 | < 0.0136 | 0.0118 | > 73.6 | 0.0264 | 1.41 | 0.0101 | 0.245 |

From PubChem BioAssay (NCI)
